Assay: Stability tests in aqueous buffer solutions
Format: physicochemical
Settings: for Stability at pH 2.5: aqueous buffer pH 2.5, 24 h at 37° C.; for Stability at pH 7: aqueous buffer pH 7, 24 h at 37° C.; for Stability at pH 9.5: aqueous buffer pH 9.5, 24 h at 37° C.

Row | Structure (SMILES) | Stability at pH 2.5 | Stability at pH 7 | Stability at pH 9.5
1 | C/C=C/CCC1CCCC(OCC(=O)c2cc3c(cc2C)C(C)(C)C(C)CC3(C)C)O1 (stereo not drawn) [compound 5, 1-(3,5,5,6,8,8-Hexamethyl-5,6,7,8-tetrahydro-naphthalen-2-yl)-2-(6-pent-3-enyl-tetrahydro-pyran-2-yloxy)-ethanone] | stable | stable | stable
2 | CCCCCCCC1CCC(OCC(=O)c2ccc3ccccc3c2)O1 (stereo not drawn) [compound 3, 2-(5-Heptyl-tetrahydro-furan-2-yloxy)-1-naphtalen-2-yl-ethanone] | unstable | stable | stable
3 | CCCCCCCC1CCC(OCC(=O)c2ccc(OC)cc2)O1 (stereo not drawn) [compound 4, 2-(5-Heptyl-tetrahydro-furan-2-yloxy)-1-(4-methoxy-phenyl)-ethanone] | unstable | stable | stable
4 | Cc1cc2c(cc1C(=O)COC1CCC3(CCC(C)CC3)O1)C(C)(C)CC(C)C2(C)C (stereo not drawn) [compound 1, 1-(3,5,5,6,8,8-Hexamethyl-5,6,7,8-tetrahydro-naphtalen-2-yl)-2-(8-methyl-1-oxa-spiro[4.5]dec-2-yloxy)-ethanone] | stable | stable | stable
5 | CCCCCCCC1CCC(OCC(=O)c2cc3c(cc2C)C(C)(C)C(C)CC3(C)C)O1 (stereo not drawn) [compound 2, 2-(5-Heptyl-tetrahydro-furan-2-yloxy)-1-(3,5,5,6,8,8-hexamethyl-5,6,7,8-tetrahydro-naphtalen-2-yl)-ethanone] | stable | stable | stable
6 | C/C=C/CCC1CCCC(OCC(=O)c2ccc3ccccc3c2)O1 (stereo not drawn) [compound 6, 1-(Naphtalen-2-yl)-2-(6-pent-3-enyl-tetrahydro-pyran-2-yloxy)-ethanone] | unstable | stable | stable

Reference: patent US6939845B2, “Fragrance precursors” (Givaudan SA, priority 2000, dated 2005)
